Test in all cases: cell-based
In one test the target is hNav1.7 (Homo sapiens, UniProt Q15858). It counts as cell-based.
The target of a further test is hNav1.3 (Homo sapiens, UniProt Q9NY46). As to conditions: IonWorks Quattro, use-dependent protocol, hNav1.3; read-out: IWQ Use Nav1.3. (In general: In patch-clamp work, channel activity is measured electrically.)
The target in another test is hNav1.5 (Homo sapiens, UniProt Q14524).
Setting [1] is: IonWorks Quattro, use-dependent protocol, hNav1.7, read-out: IWQ Use Nav1.7.
Where [2] appears, read: IonWorks Quattro, use-dependent protocol, hNav1.5, read-out: IWQ Use Nav1.5.

Like-named read-outs stand apart in the source and are kept apart here. Positions of bridges follow the written chain, without caps; N, C: chain ends. Residues, ends and D or L forms follow the SMILES beside them. Bounds are passed on as bounds.

Sequence of hNav1.3 (Q9NY46 whole entry, looked up): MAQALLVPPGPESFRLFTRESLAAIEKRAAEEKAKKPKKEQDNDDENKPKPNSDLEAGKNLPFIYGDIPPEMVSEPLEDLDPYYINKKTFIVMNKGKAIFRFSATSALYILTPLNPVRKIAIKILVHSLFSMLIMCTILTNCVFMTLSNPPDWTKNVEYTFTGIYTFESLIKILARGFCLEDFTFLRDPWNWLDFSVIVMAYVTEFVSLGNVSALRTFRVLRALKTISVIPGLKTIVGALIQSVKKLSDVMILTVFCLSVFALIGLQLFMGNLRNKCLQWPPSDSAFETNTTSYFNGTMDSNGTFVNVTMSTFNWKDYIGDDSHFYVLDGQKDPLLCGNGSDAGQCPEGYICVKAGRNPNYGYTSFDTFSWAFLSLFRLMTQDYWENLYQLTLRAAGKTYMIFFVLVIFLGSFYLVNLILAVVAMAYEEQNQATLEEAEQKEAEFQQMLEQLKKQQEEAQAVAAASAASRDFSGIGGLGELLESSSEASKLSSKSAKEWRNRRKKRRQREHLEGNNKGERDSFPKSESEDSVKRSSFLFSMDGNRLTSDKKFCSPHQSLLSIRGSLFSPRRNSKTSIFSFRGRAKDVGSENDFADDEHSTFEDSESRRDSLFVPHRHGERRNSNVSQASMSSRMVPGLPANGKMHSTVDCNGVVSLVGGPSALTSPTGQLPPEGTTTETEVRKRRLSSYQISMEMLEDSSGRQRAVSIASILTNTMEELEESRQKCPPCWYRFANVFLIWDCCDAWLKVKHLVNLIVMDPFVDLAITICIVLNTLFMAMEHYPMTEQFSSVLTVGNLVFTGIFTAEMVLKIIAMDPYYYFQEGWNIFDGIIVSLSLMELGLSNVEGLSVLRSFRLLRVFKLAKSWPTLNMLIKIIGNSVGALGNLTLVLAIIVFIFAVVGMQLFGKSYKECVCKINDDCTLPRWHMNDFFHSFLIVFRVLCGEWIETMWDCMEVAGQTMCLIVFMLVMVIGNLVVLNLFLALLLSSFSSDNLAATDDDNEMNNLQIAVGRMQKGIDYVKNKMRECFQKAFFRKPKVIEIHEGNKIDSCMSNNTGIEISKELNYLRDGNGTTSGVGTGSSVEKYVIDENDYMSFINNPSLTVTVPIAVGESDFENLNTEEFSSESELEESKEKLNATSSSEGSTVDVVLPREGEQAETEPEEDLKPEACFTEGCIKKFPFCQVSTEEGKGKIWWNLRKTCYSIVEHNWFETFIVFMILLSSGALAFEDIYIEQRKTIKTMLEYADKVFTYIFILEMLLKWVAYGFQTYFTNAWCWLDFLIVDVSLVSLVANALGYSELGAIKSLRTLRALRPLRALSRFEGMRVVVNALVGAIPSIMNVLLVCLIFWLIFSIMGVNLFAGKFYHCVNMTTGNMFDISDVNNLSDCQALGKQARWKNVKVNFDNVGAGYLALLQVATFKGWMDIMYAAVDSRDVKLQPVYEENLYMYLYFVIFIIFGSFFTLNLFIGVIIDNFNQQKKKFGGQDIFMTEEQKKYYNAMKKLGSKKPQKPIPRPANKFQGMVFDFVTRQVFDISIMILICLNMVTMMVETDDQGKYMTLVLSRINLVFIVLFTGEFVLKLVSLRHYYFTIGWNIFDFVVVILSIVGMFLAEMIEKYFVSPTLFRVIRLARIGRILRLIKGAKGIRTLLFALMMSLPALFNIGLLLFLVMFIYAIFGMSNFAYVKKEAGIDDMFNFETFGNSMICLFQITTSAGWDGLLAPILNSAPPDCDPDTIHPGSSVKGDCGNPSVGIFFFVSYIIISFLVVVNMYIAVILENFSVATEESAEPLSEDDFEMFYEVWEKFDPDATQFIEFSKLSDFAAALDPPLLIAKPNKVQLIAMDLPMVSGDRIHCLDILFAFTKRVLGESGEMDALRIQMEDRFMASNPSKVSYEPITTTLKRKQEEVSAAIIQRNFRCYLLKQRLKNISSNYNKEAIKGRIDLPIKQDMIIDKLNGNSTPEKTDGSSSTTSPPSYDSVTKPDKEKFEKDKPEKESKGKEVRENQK
Sequence of hNav1.7 (Q15858 whole entry, looked up): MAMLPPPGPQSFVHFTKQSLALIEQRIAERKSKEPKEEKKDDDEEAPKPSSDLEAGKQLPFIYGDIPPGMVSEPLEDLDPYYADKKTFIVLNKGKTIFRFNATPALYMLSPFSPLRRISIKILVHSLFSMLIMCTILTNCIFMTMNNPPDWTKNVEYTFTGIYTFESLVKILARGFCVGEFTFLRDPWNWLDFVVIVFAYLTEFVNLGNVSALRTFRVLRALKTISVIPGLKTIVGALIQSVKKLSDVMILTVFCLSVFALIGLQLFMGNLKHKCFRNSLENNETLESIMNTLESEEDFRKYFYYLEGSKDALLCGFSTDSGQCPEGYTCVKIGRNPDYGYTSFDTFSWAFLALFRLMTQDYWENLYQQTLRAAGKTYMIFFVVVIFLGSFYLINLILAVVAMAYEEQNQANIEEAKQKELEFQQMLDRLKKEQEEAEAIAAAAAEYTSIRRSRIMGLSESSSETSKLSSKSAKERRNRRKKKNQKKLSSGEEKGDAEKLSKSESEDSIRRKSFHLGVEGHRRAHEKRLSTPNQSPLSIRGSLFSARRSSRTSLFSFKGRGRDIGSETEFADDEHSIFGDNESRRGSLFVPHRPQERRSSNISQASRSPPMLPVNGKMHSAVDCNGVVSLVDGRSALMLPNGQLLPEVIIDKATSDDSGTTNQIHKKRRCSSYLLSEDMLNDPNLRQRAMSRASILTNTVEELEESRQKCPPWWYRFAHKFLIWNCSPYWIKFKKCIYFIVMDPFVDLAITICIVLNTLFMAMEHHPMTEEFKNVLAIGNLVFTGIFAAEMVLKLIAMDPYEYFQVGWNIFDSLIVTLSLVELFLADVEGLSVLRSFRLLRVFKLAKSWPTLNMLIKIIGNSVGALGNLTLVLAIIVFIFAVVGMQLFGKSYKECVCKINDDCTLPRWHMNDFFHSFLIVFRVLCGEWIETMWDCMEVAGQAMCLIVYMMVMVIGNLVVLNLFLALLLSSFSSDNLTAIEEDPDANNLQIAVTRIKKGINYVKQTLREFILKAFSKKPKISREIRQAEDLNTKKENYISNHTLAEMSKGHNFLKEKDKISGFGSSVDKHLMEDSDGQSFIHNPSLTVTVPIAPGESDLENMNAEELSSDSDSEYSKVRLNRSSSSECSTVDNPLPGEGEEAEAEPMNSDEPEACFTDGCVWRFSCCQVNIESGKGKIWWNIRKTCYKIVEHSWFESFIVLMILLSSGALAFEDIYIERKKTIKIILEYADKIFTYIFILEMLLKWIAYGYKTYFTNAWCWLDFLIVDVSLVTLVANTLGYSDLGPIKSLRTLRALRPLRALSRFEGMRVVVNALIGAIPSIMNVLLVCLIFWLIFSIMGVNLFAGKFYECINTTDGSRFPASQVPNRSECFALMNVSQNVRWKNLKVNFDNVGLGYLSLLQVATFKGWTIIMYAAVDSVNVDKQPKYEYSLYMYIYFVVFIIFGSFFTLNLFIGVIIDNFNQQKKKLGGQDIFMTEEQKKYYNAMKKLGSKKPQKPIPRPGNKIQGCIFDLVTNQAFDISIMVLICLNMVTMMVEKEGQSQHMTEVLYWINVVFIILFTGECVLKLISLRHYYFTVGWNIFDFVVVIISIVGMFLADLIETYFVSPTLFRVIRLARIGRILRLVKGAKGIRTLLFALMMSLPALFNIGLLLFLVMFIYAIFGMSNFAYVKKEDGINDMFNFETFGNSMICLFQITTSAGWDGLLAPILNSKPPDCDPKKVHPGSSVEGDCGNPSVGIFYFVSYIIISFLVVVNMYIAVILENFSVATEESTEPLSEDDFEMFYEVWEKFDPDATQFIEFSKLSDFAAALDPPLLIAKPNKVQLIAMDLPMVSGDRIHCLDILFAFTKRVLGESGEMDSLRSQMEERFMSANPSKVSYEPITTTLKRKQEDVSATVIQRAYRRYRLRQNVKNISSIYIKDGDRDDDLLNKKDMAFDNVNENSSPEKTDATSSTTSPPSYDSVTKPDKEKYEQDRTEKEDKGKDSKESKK

Regarding `CC[C@H](C)[C@@H]1NC(=O)[C@@H]2CSSC[C@@H]3NC(=O)[C@H](C(C)C)NC(=O)[C@H](CC(C)C)NC(=O)[C@H](CC(N)=O)NC(=O)[C@@H]4CCCN4C(=O)[C@H](CCCNC(=N)N)NC(=O)[C@H](CSSC[C@H](NC(=O)[C@@H](N)CC(=O)O)C(=O)N[C@@H](CC(C)C)C(=O)NCC(=O)N[C@@H](C(C)C)C(=O)N[C@@H](CC(C)C)C(=O)N[C@@H](CCCNC(=N)N)C(=O)N[C@@H](CCCCN)C(=O)N2)NC(=O)[C@H](CSSC[C@@H](C(=O)N[C@@H](CCCCN)C(=O)N[C@@H](Cc2ccc(O)cc2)C(=O)N[C@H](C(=O)N[C@@H](Cc2ccccc2)C(N)=O)C(C)C)NC(=O)[C@H](Cc2c[nH]c4ccccc24)NC(=O)[C@H](CCCCN)NC(=O)[C@H](Cc2c[nH]cn2)NC(=O)[C@H]([C@@H](C)O)NC(=O)[C@H](CCCNC(=N)N)NC(=O)[C@H](CO)NC3=O)NC(=O)[C@H](CCCCN)NC(=O)[C@H](CC(=O)O)NC(=O)[C@H](CC(N)=O)NC(=O)[C@H](CC(=O)O)NC(=O)[C@@H]2CCCN2C1=O` [compound 644] (H-DCLGVLRKCIPDNDKCCRPNLVCSRTHKWCKYVF-NH2; disulfide 2-17, 9-23, 16-30), the IC50 at hNav1.7 (setting [1]) was 150 nM; at hNav1.3 it was 480 nM; on hNav1.5 (setting [2]), > 5000 nM.
For the compound `CC[C@H](C)[C@@H]1NC(=O)[C@@H]2CSSC[C@@H]3NC(=O)[C@H](C(C)C)NC(=O)[C@H](CC(C)C)NC(=O)[C@H](CC(N)=O)NC(=O)[C@@H]4CCCN4C(=O)[C@H](CCCNC(=N)N)NC(=O)[C@H](CSSC[C@H](NC(=O)[C@@H](N)CC(=O)O)C(=O)N[C@@H](CC(C)C)C(=O)NCC(=O)N[C@@H](Cc4ccc(OC)c(OC)c4)C(=O)N[C@@H](CC(C)C)C(=O)N[C@@H](CCCNC(=N)N)C(=O)N[C@@H](CCCCN)C(=O)N2)NC(=O)[C@H](CSSC[C@@H](C(=O)N[C@@H](CCCCN)C(=O)N[C@@H](Cc2ccc(O)cc2)C(=O)N[C@H](C(=O)N[C@@H](Cc2ccccc2)C(N)=O)C(C)C)NC(=O)[C@H](Cc2c[nH]c4ccccc24)NC(=O)[C@H](CCCCN)NC(=O)[C@H](Cc2c[nH]cn2)NC(=O)[C@H]([C@@H](C)O)NC(=O)[C@H](CCCNC(=N)N)NC(=O)[C@H](CO)NC3=O)NC(=O)[C@H](CCCCN)NC(=O)[C@H](CC(=O)O)NC(=O)[C@H](CC(N)=O)NC(=O)[C@H](CC(=O)O)NC(=O)[C@@H]2CCCN2C1=O` [compound 645], the IC50 is 2400 nM on hNav1.7 (setting [1]), 2600 nM at hNav1.3 and > 5000 nM on hNav1.5 (setting [2]).
Take `CC[C@H](C)[C@@H]1NC(=O)[C@@H]2CSSC[C@@H]3NC(=O)[C@H](C(C)C)NC(=O)[C@H](CC(C)C)NC(=O)[C@H](CC(N)=O)NC(=O)[C@@H]4CCCN4C(=O)[C@H](CCCNC(=N)N)NC(=O)[C@H](CSSC[C@H](NC(=O)[C@@H](N)CC(=O)O)C(=O)N[C@@H](CC(C)C)C(=O)NCC(=O)N(C)CC(=O)N[C@@H](CC(C)C)C(=O)N[C@@H](CCCNC(=N)N)C(=O)N[C@@H](CCCCN)C(=O)N2)NC(=O)[C@H](CSSC[C@@H](C(=O)N[C@@H](CCCCN)C(=O)N[C@@H](Cc2ccc(O)cc2)C(=O)N[C@H](C(=O)N[C@@H](Cc2ccccc2)C(N)=O)C(C)C)NC(=O)[C@H](Cc2c[nH]c4ccccc24)NC(=O)[C@H](CCCCN)NC(=O)[C@H](Cc2c[nH]cn2)NC(=O)[C@H]([C@@H](C)O)NC(=O)[C@H](CCCNC(=N)N)NC(=O)[C@H](CO)NC3=O)NC(=O)[C@H](CCCCN)NC(=O)[C@H](CC(=O)O)NC(=O)[C@H](CC(N)=O)NC(=O)[C@H](CC(=O)O)NC(=O)[C@@H]2CCCN2C1=O` [compound 646]: the IC50 on hNav1.7 (setting [1]) was 920 nM; at hNav1.3, 1700 nM; on hNav1.5 (setting [2]), > 5000 nM.
For `CC[C@H](C)[C@@H]1NC(=O)[C@@H]2CSSC[C@@H]3NC(=O)[C@H](C(C)C)NC(=O)[C@H](CC(C)C)NC(=O)[C@H](CC(N)=O)NC(=O)[C@@H]4CCCN4C(=O)[C@H](CCCNC(=N)N)NC(=O)[C@H](CSSC[C@H](NC(=O)[C@@H](N)CC(=O)O)C(=O)N[C@@H](CC(C)C)C(=O)NCC(=O)N[C@H](C)C(=O)N[C@@H](CCSC)C(=O)N[C@@H](CCCNC(=N)N)C(=O)N[C@@H](CCCCN)C(=O)N2)NC(=O)[C@H](CSSC[C@@H](C(=O)N[C@@H](CCCCN)C(=O)N[C@@H](Cc2ccc(O)cc2)C(=O)N[C@H](C(=O)N[C@@H](Cc2ccccc2)C(N)=O)C(C)C)NC(=O)[C@H](Cc2c[nH]c4ccccc24)NC(=O)[C@H](CCCCN)NC(=O)[C@H](Cc2c[nH]cn2)NC(=O)[C@H]([C@@H](C)O)NC(=O)[C@H](CCCNC(=N)N)NC(=O)[C@H](CO)NC3=O)NC(=O)[C@H](CCCCN)NC(=O)[C@H](CC(=O)O)NC(=O)[C@H](CC(N)=O)NC(=O)[C@H](CC(=O)O)NC(=O)[C@@H]2CCCN2C1=O` [compound 647], the IC50 against hNav1.7 was 4500 nM; at hNav1.3, > 5000 nM; at hNav1.5 (setting [2]) it was > 5000 nM.
As for `CC[C@H](C)[C@@H]1NC(=O)[C@@H]2CSSC[C@@H]3NC(=O)[C@H](C(C)C)NC(=O)[C@H](CC(C)C)NC(=O)[C@H](CC(N)=O)NC(=O)[C@@H]4CCCN4C(=O)[C@H](CCCNC(=N)N)NC(=O)[C@H](CSSC[C@H](NC(=O)[C@@H](N)CC(=O)O)C(=O)N[C@@H](CC(C)C)C(=O)NCC(=O)NCCC(=O)N[C@@H](CCSC)C(=O)N[C@@H](CCCNC(=N)N)C(=O)N[C@@H](CCCCN)C(=O)N2)NC(=O)[C@H](CSSC[C@@H](C(=O)N[C@@H](CCCCN)C(=O)N[C@@H](Cc2ccc(O)cc2)C(=O)N[C@H](C(=O)N[C@@H](Cc2ccccc2)C(N)=O)C(C)C)NC(=O)[C@H](Cc2c[nH]c4ccccc24)NC(=O)[C@H](CCCCN)NC(=O)[C@H](Cc2c[nH]cn2)NC(=O)[C@H]([C@@H](C)O)NC(=O)[C@H](CCCNC(=N)N)NC(=O)[C@H](CO)NC3=O)NC(=O)[C@H](CCCCN)NC(=O)[C@H](CC(=O)O)NC(=O)[C@H](CC(N)=O)NC(=O)[C@H](CC(=O)O)NC(=O)[C@@H]2CCCN2C1=O` [compound 648], the values for the IC50 at hNav1.7 (setting [1]), on hNav1.3 and at hNav1.5 (setting [2]) were 4700 nM, > 5000 nM and > 5000 nM, respectively.
As for `CC[C@@H]1NC(=O)CNC(=O)[C@H](CC(C)C)NC(=O)[C@@H](NC(=O)[C@@H](N)CC(=O)O)CSSC[C@@H]2NC(=O)[C@@H]3CSSC[C@@H](C(=O)N[C@@H](CCCCN)C(=O)N[C@@H](Cc4ccc(O)cc4)C(=O)N[C@H](C(=O)N[C@@H](Cc4ccccc4)C(N)=O)C(C)C)NC(=O)[C@H](Cc4c[nH]c5ccccc45)NC(=O)[C@H](CCCCN)NC(=O)[C@H](Cc4cnc[nH]4)NC(=O)[C@H]([C@@H](C)O)NC(=O)[C@H](CCCNC(=N)N)NC(=O)[C@H](CO)NC(=O)[C@H](CSSC[C@H](NC(=O)[C@H](CCCCN)NC(=O)[C@H](CCCNC(=N)N)NC(=O)[C@H](CCSC)NC1=O)C(=O)N[C@@H]([C@@H](C)CC)C(=O)N1CCC[C@H]1C(=O)N[C@@H](CC(=O)O)C(=O)N[C@@H](CC(N)=O)C(=O)N[C@@H](CC(=O)O)C(=O)N[C@@H](CCCCN)C(=O)N3)NC(=O)[C@H](C(C)C)NC(=O)[C@H](CC(C)C)NC(=O)[C@H](CC(N)=O)NC(=O)[C@@H]1CCCN1C(=O)[C@H](CCCNC(=N)N)NC2=O` [compound 649], the IC50 is 690 nM on hNav1.7 (setting [1]), 1300 nM on hNav1.3 and > 5000 nM on hNav1.5 (setting [2]).
With `CCC[C@@H]1NC(=O)CNC(=O)[C@H](CC(C)C)NC(=O)[C@@H](NC(=O)[C@@H](N)CC(=O)O)CSSC[C@@H]2NC(=O)[C@@H]3CSSC[C@@H](C(=O)N[C@@H](CCCCN)C(=O)N[C@@H](Cc4ccc(O)cc4)C(=O)N[C@H](C(=O)N[C@@H](Cc4ccccc4)C(N)=O)C(C)C)NC(=O)[C@H](Cc4c[nH]c5ccccc45)NC(=O)[C@H](CCCCN)NC(=O)[C@H](Cc4cnc[nH]4)NC(=O)[C@H]([C@@H](C)O)NC(=O)[C@H](CCCNC(=N)N)NC(=O)[C@H](CO)NC(=O)[C@H](CSSC[C@H](NC(=O)[C@H](CCCCN)NC(=O)[C@H](CCCNC(=N)N)NC(=O)[C@H](CCSC)NC1=O)C(=O)N[C@@H]([C@@H](C)CC)C(=O)N1CCC[C@H]1C(=O)N[C@@H](CC(=O)O)C(=O)N[C@@H](CC(N)=O)C(=O)N[C@@H](CC(=O)O)C(=O)N[C@@H](CCCCN)C(=O)N3)NC(=O)[C@H](C(C)C)NC(=O)[C@H](CC(C)C)NC(=O)[C@H](CC(N)=O)NC(=O)[C@@H]1CCCN1C(=O)[C@H](CCCNC(=N)N)NC2=O` [compound 650], the IC50 against hNav1.7 is 200 nM; at hNav1.3, 570 nM; on hNav1.5 (setting [2]), > 5000 nM.
For `CCCC[C@@H]1NC(=O)CNC(=O)[C@H](CC(C)C)NC(=O)[C@@H](NC(=O)[C@@H](N)CC(=O)O)CSSC[C@@H]2NC(=O)[C@@H]3CSSC[C@@H](C(=O)N[C@@H](CCCCN)C(=O)N[C@@H](Cc4ccc(O)cc4)C(=O)N[C@H](C(=O)N[C@@H](Cc4ccccc4)C(N)=O)C(C)C)NC(=O)[C@H](Cc4c[nH]c5ccccc45)NC(=O)[C@H](CCCCN)NC(=O)[C@H](Cc4c[nH]cn4)NC(=O)[C@H]([C@@H](C)O)NC(=O)[C@H](CCCNC(=N)N)NC(=O)[C@H](CO)NC(=O)[C@H](CSSC[C@H](NC(=O)[C@H](CCCCN)NC(=O)[C@H](CCCNC(=N)N)NC(=O)[C@H](CCSC)NC1=O)C(=O)N[C@@H]([C@@H](C)CC)C(=O)N1CCC[C@H]1C(=O)N[C@@H](CC(=O)O)C(=O)N[C@@H](CC(N)=O)C(=O)N[C@@H](CC(=O)O)C(=O)N[C@@H](CCCCN)C(=O)N3)NC(=O)[C@H](C(C)C)NC(=O)[C@H](CC(C)C)NC(=O)[C@H](CC(N)=O)NC(=O)[C@@H]1CCCN1C(=O)[C@H](CCCNC(=N)N)NC2=O` [compound 651], the IC50 on hNav1.7 (setting [1]) is 77 nM; at hNav1.3, 170 nM; against hNav1.5 (IWQ Use Nav1.5), > 5000 nM.

These data come from patent US9340590B2 (priority 2011, dated 2016).
